Data: ChEMBL document CHEMBL5230117, “Chalcones: Unearthing their therapeutic possibility as monoamine oxidase B inhibitors” (Eur J Med Chem, 2020)
pIC50, pKi: −log10 of the molar value.

target: T1, Amine oxidase [flavin-containing] B (Homo sapiens, UniProt P27338); experiment: Binding affinity to human MAO-B using p-tyramine as substrate incubated for 15 mins by amplex red dye based microplate assay; conditions: not given
T1 sequence (P27338 whole entry): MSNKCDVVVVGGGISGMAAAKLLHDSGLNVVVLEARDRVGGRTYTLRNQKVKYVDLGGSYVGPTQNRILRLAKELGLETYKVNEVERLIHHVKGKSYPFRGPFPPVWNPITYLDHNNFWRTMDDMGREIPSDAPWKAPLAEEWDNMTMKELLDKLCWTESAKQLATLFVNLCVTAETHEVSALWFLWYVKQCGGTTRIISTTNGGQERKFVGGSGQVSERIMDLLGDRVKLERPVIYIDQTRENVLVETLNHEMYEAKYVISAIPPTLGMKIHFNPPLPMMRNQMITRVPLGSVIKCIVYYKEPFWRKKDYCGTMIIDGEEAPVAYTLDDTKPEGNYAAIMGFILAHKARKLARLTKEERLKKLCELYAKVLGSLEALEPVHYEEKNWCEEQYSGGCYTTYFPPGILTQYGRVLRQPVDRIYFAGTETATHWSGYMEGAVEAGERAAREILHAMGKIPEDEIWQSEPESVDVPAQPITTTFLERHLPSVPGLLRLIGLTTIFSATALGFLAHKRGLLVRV

Compared with O=C(/C=C/c1ccc(Br)cc1)c1c[nH]c2ccccc12, O=C(/C=C/c1csc2ccccc12)c1ccco1 is 0.86 log units lower in pKi: 8.00 for the first, 7.14 for the second. The first binds more tightly here.

Work on O=C(/C=C/C=C/c1ccccc1)c1ccco1 yielded a pKi of 8.39.

species: Homo sapiens; experiment: Selectivity index, ratio of IC50 for human MAO-A to IC50 for human MAO-B; conditions: not given

Going from O=C(/C=C/c1ccc(Br)cc1)c1c[nH]c2ccccc12 to CC/C(C)=N/Oc1ccc(C(=O)/C=C/c2ccccc2)cc1, the Ratio IC50 rises from 120 to over 120.

First: O=C(/C=C/c1csc2ccccc12)c1ccco1
Second: O=C(/C=C/C=C/c1ccccc1)c1ccco1
The Ratio IC50 of the first is lower: 12.6 for the first, 172 for the second.

target: T1, Amine oxidase [flavin-containing] B; experiment: Binding affinity to human MAO-B using kynuramine as substrate incubated for 30 mins by absorbance based assay; conditions: not given

First: COC(=O)c1ccc(/C=C/C(=O)c2ccco2)cc1
Second: O=C(/C=C/c1ccc(Cl)cc1Cl)c1ccco1
The pKi of the first is 0.45 log units higher: 6.52 for the first, 6.07 for the second.

O=C(/C=C/c1ccc(O)c(O)c1O)c1ccco1 showed a pKi of 5.45.

target: T1, Amine oxidase [flavin-containing] B; experiment: Inhibition of human MAO-B using p-tyramine as substrate by fluorimetric based assay; conditions: not given

Compound COc1cc2c(Nc3ccc(C(=O)/C=C/c4nc(C)c(C)nc4C)cc3)ncnc2c(OC)c1OC has a pIC50 of 5.59.

target: T1, Amine oxidase [flavin-containing] B; experiment: Inhibition of human MAO-B using benzylamine as substrate; conditions: not given

Work on CC/C(C)=N/Oc1ccc(C(=O)/C=C/c2ccccc2)cc1 yielded a pIC50 of 7.07.

target: T1, Amine oxidase [flavin-containing] B; experiment: Inhibition of human MAO-B; conditions: not given

O=C(/C=C/c1cccc2c1OCO2)c1ccc(Cl)cc1 and O=C(/C=C/c1cccc2c1OCO2)c1ccc(Br)cc1 cannot be ordered by pIC50: over 7.00 for the first, over 7.00 for the second.

Cc1ccc(/C=C/C(=O)c2ccc3c(c2)OCCO3)cc1 and O=C(/C=C/c1cccc2c1OCO2)c1cccc(Cl)c1 cannot be ordered by pIC50: 8.47 for the first, over 7.00 for the second.

Compound O=C(/C=C/c1cccc2c1OCO2)c1cccc(Br)c1 has a pIC50 of over 7.00.

target: T2, Amine oxidase [flavin-containing] A (Homo sapiens, UniProt P21397); experiment: Inhibition of human MAO-A using kynuramine as substrate incubated for 10 mins by continuous spectrophotometric method; conditions: not given
T2 sequence (P21397 whole entry): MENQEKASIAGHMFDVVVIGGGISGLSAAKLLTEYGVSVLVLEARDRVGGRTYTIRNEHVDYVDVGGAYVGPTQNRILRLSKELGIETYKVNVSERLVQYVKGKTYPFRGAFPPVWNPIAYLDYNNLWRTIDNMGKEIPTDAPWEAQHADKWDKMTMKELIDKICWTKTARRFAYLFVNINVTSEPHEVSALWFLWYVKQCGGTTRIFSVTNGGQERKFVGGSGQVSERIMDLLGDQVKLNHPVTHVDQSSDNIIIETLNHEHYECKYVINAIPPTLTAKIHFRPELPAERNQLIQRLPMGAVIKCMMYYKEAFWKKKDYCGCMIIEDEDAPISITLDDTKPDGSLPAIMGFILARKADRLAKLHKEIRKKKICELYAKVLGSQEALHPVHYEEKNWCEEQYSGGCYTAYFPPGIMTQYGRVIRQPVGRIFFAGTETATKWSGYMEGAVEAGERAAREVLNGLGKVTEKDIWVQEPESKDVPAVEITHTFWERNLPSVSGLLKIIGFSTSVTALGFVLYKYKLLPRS

For CC/C(C)=N/Oc1ccc(C(=O)/C=C/c2ccccc2)cc1, the pIC50 was under 5.00.

target: T1, Amine oxidase [flavin-containing] B; experiment: Inhibition of human MAO-B using kynuramine as substrate incubated for 30 mins by fluorescence based assay; conditions: 0.5 h

COc1ccc(C(=O)/C=C/c2ccc(N(C)C)cc2)cc1 was tested, and the “inhibition (INH)” value was under 75%.
With COc1ccc(/C=C/C(=O)c2ccc(Cl)cc2)cc1 the “inhibition (INH)” value was under 75%.

target: T2, Amine oxidase [flavin-containing] A; experiment: Inhibition of human MAO-A using kynuramine as substrate incubated for 20 mins by fluorescence based assay relative to control; conditions: not given

Compared with COc1cc(O)c(C(=O)/C=C/c2ccccc2O)c(OC)c1, COc1cc(O)ccc1C(=O)/C=C/c1ccc(O)cc1 is 1.41 log units lower in pIC50: 6.41 for the first, 5.00 for the second.

Going from CC(C)=CCc1cc(C(=O)/C=C/c2ccc(O)c(O)c2)c(O)cc1O [BROUSSOCHALCONE A] to CC(C)=CCC/C(C)=C/Cc1c(O)ccc(C(=O)/C=C/c2ccc(O)cc2)c1O [XANTHOANGELOL], the pIC50 falls from 6.14 to under 4.40.

COc1ccc(C(=O)/C=C/c2ccc(O)cc2)c(O)c1CC=C(C)C showed a pIC50 of under 4.40.

target: T1, Amine oxidase [flavin-containing] B; experiment: Inhibition of human MAO-B using kynuramine as substrate incubated for 20 mins by fluorescence based assay relative to control; conditions: not given

First: COc1cc(O)c(C(=O)/C=C/c2ccccc2O)c(OC)c1
Second: COc1cc(O)ccc1C(=O)/C=C/c1ccc(O)cc1
The pIC50 of the first is 0.85 log units lower: 5.57 for the first, 6.42 for the second.

First: CC(C)=CCc1cc(C(=O)/C=C/c2ccc(O)c(O)c2)c(O)cc1O [BROUSSOCHALCONE A]
Second: CC(C)=CCC/C(C)=C/Cc1c(O)ccc(C(=O)/C=C/c2ccc(O)cc2)c1O [XANTHOANGELOL]
The pIC50 of the first is 0.27 log units higher: 5.15 for the first, 4.88 for the second. The first is the more potent here.

COc1ccc(C(=O)/C=C/c2ccc(O)cc2)c(O)c1CC=C(C)C was tested, and the pIC50 was 5.86.

species: Homo sapiens; experiment: Selectivity index, ratio of IC50 for human MAO-A to IC50 for human MAO-B by fluorescence based assay; conditions: not given

Compared with COc1cc(O)c(C(=O)/C=C/c2ccccc2O)c(OC)c1, COc1cc(O)c(C(=O)/C=C/c2ccccc2)c(O)c1 is higher in Ratio IC50: 0.14 for the first, 0.63 for the second.

Compared with COc1cc(O)ccc1C(=O)/C=C/c1ccc(O)cc1, COc1ccc(C(=O)/C=C/c2ccc(O)cc2)c(O)c1CC=C(C)C is higher in Ratio IC50: 9.9 for the first, over 28.8 for the second.

Compared with CC(C)=CCc1cc(C(=O)/C=C/c2ccc(O)c(O)c2)c(O)cc1O [BROUSSOCHALCONE A], CC(C)=CCC/C(C)=C/Cc1c(O)ccc(C(=O)/C=C/c2ccc(O)cc2)c1O [XANTHOANGELOL] is higher in Ratio IC50: 0.1 for the first, over 3.03 for the second.
